According to PubChem BioAssay AID624474 (Sanford-Burnham Center for Chemical Genomics, 2012):

Molecular target: Protein skinhead-1 (Caenorhabditis elegans) (UniProt P34707)
Assay: C. elegans SKN-1 blockade, concentration series – fluorescence ratio readout, dose response (AID 624474)
Settings: SKN-1 inhibitor fluorescence ratio assay

Sequence of Protein skinhead-1 (Caenorhabditis elegans) (P34707 whole entry, looked up): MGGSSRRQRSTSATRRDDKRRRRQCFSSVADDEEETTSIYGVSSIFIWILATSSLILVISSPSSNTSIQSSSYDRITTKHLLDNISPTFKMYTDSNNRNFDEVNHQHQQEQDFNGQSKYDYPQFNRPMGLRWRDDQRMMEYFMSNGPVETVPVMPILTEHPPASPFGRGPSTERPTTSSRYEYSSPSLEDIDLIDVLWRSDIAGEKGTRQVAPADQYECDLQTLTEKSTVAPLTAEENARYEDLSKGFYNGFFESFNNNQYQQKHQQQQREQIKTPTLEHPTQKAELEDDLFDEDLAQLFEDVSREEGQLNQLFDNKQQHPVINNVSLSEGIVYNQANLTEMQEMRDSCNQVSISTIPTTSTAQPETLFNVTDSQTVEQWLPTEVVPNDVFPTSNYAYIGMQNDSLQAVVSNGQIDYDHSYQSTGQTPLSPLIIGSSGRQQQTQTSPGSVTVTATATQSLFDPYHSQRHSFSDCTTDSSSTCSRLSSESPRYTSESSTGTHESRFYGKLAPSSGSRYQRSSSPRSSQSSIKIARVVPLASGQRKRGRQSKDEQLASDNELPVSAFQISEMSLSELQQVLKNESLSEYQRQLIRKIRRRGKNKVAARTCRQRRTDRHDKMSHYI

Row | Structure (SMILES) | IC50 [µM]
1 | COc1cc(CNC(C)(C)CO)cc(Br)c1OCc1ccc(Cl)cc1 | 19.5
2 | Brc1ccc(-c2nnc(-c3ccco3)o2)cc1 | 13.9
3 | Clc1ccc(Cn2cc(Br)cn2)cc1Cl | 30.6
4 | O=C(/C=C/c1ccc(Br)cc1)c1ccc(NC2=NCCCS2)cc1 | 9.41
